Measurements from the NIST ThermoML archive (doi:10.1016/j.fluid.2011.06.020).

Conditions: Liquid, Closed cell (Static) method

CCOC(=O)CCC(=O)O [4-ethoxy-4-oxobutanoic acid]
Conditions | vapor or sublimation pressure [kPa]
417.7 K | 1.587
421.2 K | 2.089
425.1 K | 2.591
428.5 K | 3.094
433 K | 3.596
435.6 K | 4.098
436.7 K | 4.601
439.8 K | 5.103
440.3 K | 5.605
443 K | 6.107
444.3 K | 6.61
445.9 K | 7.112
447.6 K | 7.614
449.1 K | 8.117
450.5 K | 8.619
452.1 K | 9.121
453.2 K | 9.624
454.7 K | 10.13
455.7 K | 10.63
456.5 K | 11.13
457.2 K | 11.63
458.2 K | 12.14
458.4 K | 12.64
459.8 K | 13.14
460.1 K | 13.64
460.3 K | 14.14
461.1 K | 14.65
462 K | 15.15
463.3 K | 15.65
463.8 K | 16.15
464.2 K | 16.66
464.5 K | 17.16
465.2 K | 17.66
465.8 K | 18.16
466.7 K | 18.67
467.3 K | 19.17
467.8 K | 19.67
468.3 K | 20.17
468.8 K | 20.67
469.5 K | 21.18
469.7 K | 21.68
469.8 K | 22.18
470.1 K | 22.68
470.3 K | 23.19
470.4 K | 23.69
470.5 K | 24.19
471.1 K | 24.69
471.4 K | 25.2
471.9 K | 25.7
